Laboratory results: paper PMC12362796, “Bilirubin Targeting WNK1 to Alleviate NLRP3‐Mediated Neuroinflammation” (Advanced Science, 2025)

Key:
hWNK1(181–507 S382A) = biological target: T1, hWNK1(181–507 S382A) (Homo sapiens, UniProt Q9H4A3, S382A); experiment: ADP-Glo kinase assay, kinase-dead WNK1 mutant control; assay type: biochemical; conditions: negative control
T1 construct: The kinase‐dead WNK1 mutant hWNK1(181–507 S382A) served as a negative control
Source text: Given the binding of bilirubin to the kinase domain of WNK1, we aimed to explore its effect on WNK1 with a particular focus on its kinase activity. To evaluate WNK1 kinase activity, we utilized an in vitro kinase enzyme assay system to quantify ADP production by the amino acid fragment 181–507 of human WNK1 (hWNK1) over a range of bilirubin concentrations. The kinase‐dead WNK1 mutant hWNK1(181–507 S382A) served as a negative control (Figure S10, Supporting Information).^[ [30] ^]
WNK1 kinase activity was measured using the ADP‐Glo Kinase Assay (Promega, Cat. V9101) following the manufacturer's instructions. Purified protein was incubated with bilirubin across a range of 12 serially diluted concentrations, beginning at a maximum concentration of 20 µM. After the incubation period, luminescence was recorded using a microplate reader (Synergy H1M, BioTek)

[1] = tested on: OSR1 and SPAK phosphorylation; experiment: Western blotting of OSR1 and SPAK phosphorylation in hippocampus; assay type: cell-based, mouse
Source text: To further investigate the impact of bilirubin on WNK1 kinase activity, we generated hippocampal neuron‐specific Wnk1 knockout mice. Given that conventional Wnk1 knockout mice are embryonically lethal, we employed the CRISPR/Cas9 method to create mice carrying the floxed Wnk1 gene. Then we crossed Thy1‐Cre mice with Wnk1^flox/flox mice to generate hippocampal neuron‐specific Wnk1 knockout mice. We examined the effects of bilirubin on the phosphorylation of WNK1 downstream targets, Ste20‐related proline alanine‐rich kinase (SPAK), and oxidative stress‐responsive kinase 1 (OSR1), in the hippocampus of Wnk1^flox/flox and Wnk1^flox/flox,Thy1‐Cre mice. Upon bilirubin treatment, phosphorylation of OSR1 and SPAK was elevated in the hippocampus of Wnk1^flox/flox mice. […] These findings indicate that the effect of bilirubin on OSR1 and SPAK phosphorylation is WNK1‐dependent (Figure 4B). To rule out the potential effects of osmolarity on the phosphorylation of WNK1, OSR1, and SPAK, we measured the osmolarity of different bilirubin concentrations.
(§1) Cells or tissues were lysed by grinding in RIPA buffer (cat. no. PC101; Epizyme Biotech) supplemented with a protease inhibitor cocktail (cat. no. 5872S; Cell Signaling Technology) at 4 °C. […] The total protein concentration was determined using the Pierce BCA Protein Assay Kit (cat. no. 23 225, Thermo Fisher Scientific). […]

phospho-S940 KCC2 = experiment: Western blotting of phospho-S940 KCC2 in hippocampal tissue; assay type: cell-based, mouse
Source text: Since bilirubin‐induced activation of WNK1 kinase activity increases [Cl⁻]i in neurons, we sought to elucidate the downstream effector proteins of WNK1 that are involved in this process. Neuronal [Cl⁻]i is primarily regulated by the Cl⁻‐K⁺ symporter KCC2, with additional modulation by factors such as the Na⁺‐K⁺‐Cl⁻ co‐transporter NKCC1, GABAA receptors, and glycine receptors (GlyR), all of which contribute to [Cl⁻]i homeostasis.^[ [31] ^] To investigate the mechanism underlying bilirubin‐induced changes in [Cl⁻]i, we selectively targeted these proteins using pharmacological inhibitors (VU0463271 for KCC2, bumetanide for NKCC1, bicuculline for GABAA receptors, and strychnine for GlyR) and activated KCC2 using CLP257.^[ [35], [36] ^] […]
as §1

HEK 293T cell line = experiment: MQAE intracellular chloride measurement in HEK 293T cell line; assay type: cell-based, human; conditions: lacking KCC2 expression
Source text: Since bilirubin‐induced activation of WNK1 kinase activity increases [Cl⁻]i in neurons, we sought to elucidate the downstream effector proteins of WNK1 that are involved in this process. Neuronal [Cl⁻]i is primarily regulated by the Cl⁻‐K⁺ symporter KCC2, with additional modulation by factors such as the Na⁺‐K⁺‐Cl⁻ co‐transporter NKCC1, GABAA receptors, and glycine receptors (GlyR), all of which contribute to [Cl⁻]i homeostasis.^[ [31] ^] To investigate the mechanism underlying bilirubin‐induced changes in [Cl⁻]i, we selectively targeted these proteins using pharmacological inhibitors (VU0463271 for KCC2, bumetanide for NKCC1, bicuculline for GABAA receptors, and strychnine for GlyR) and activated KCC2 using CLP257.^[ [35], [36] ^] […] The bilirubin‐induced effect on [Cl⁻]i was not observed in primary astrocytes (Figure S15A,B, Supporting Information) or the HEK 293T cell line (Figure S15C, Supporting Information), both of which lacked KCC2 expression (Figure S16A,B, Supporting Information), further confirming that the effects of bilirubin and WNK1 on [Cl⁻]i elevation are dependent on KCC2.
Intracellular chloride concentration ([Cl⁻]i) was measured using the MQAE fluorescent dye (Life Technologies) following established protocols (Zhang, Lee et al. 2015). […]

T1 sequence (Q9H4A3 181-507 S382A): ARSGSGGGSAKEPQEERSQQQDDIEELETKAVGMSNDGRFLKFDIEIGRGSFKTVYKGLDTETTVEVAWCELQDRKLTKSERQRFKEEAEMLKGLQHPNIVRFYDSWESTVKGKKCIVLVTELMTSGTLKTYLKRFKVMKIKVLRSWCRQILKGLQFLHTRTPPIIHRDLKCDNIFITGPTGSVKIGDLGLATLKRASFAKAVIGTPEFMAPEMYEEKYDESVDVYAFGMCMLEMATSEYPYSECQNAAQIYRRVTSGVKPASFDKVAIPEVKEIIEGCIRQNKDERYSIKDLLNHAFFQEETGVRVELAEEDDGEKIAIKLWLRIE

effect on kinase activity of kinase-dead mutant (hWNK1(181–507 S382A)): no effect
Compound: C=CC1=C(C)/C(=C/c2[nH]c(Cc3[nH]c(/C=C4\NC(=O)C(C)=C4C=C)c(C)c3CCC(=O)O)c(CCC(=O)O)c2C)NC1=O [bilirubin, Bilirubin]
phosphorylation of OSR1 and SPAK ([1]; hippocampus of Wnk1flox/flox mice): elevated | phosphorylation of OSR1 and SPAK ([1]; hippocampus of Wnk1flox/flox,Thy1-Cre mice): minimal impact | relative expression of phospho-S940 KCC2 (phospho-S940 KCC2; Wnk1fl/fl mice hippocampal tissue): decrease | relative expression of phospho-S940 KCC2 (phospho-S940 KCC2; Wnk1fl/fl,Thy1-Cre mice hippocampal tissue): no such effect | bilirubin-induced effect on [Cl−]i (HEK 293T cell line): not observed
